Where “and” joins values, the source holds several entries; their conditions need not be identical. Equal values may be shown once. Read-outs that look alike come from different tables or passages of the source.
Experiments:
HsProRS = HsProRS (Homo sapiens, UniProt P07814); assay: TR-FRET ligand displacement assay with tracer MAT379 (CoraFluor-1-Halo and anti-His6 antibody formats); assay type: binding; set-up: made in house; host or cells: E. coli SoluBL-21; conditions: SI Fig 15, listed as NCP26 (3)
PfcProRS = target: T1, PfcProRS (Plasmodium falciparum, UniProt Q8I5R7); assay type: binding; conditions: for dose-response signal (normalized), SI Fig 8: single replicates, listed as NCP26 (3)
T1 construct: made in house; host or cells: E. coli SoluBL-21

[1] = tested on: halofuginone-induced P. falciparum (elevated proline homeostasis); assay: P. falciparum ABS growth assay, SYBR Green, 72 h, halofuginone-induced parasites; assay type: cell-based, Plasmodium falciparum; conditions: for parasite growth, replicate wells (Fig 1b): Halofuginone-Induced
In short: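 Dd2-derived erythrocytic-stage parasites at 1% parasitemia and 1% hematocrit in RPMI + 0.5% Albumax were exposed to compounds in triplicate dose-response. Controls were 10 μM dihydroartemisinin (kill) and no-compound wells (growth). Growth was read by SYBR Green 1 fluorescence after 72 h and used to derive EC50.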

HsProRS, sequence (P07814 996-1512): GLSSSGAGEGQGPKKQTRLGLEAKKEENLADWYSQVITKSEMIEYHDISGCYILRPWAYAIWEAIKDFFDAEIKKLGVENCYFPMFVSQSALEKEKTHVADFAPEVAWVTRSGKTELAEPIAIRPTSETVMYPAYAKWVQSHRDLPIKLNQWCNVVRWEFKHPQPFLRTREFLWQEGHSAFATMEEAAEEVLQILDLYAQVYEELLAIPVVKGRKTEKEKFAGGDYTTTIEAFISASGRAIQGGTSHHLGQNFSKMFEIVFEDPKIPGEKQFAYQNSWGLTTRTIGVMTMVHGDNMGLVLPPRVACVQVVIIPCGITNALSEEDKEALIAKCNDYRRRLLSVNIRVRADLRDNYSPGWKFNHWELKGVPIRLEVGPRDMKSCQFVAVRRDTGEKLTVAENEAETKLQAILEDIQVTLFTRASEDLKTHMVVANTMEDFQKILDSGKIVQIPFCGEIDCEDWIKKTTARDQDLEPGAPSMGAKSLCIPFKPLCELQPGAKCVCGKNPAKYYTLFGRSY
T1 sequence (Q8I5R7 249-746): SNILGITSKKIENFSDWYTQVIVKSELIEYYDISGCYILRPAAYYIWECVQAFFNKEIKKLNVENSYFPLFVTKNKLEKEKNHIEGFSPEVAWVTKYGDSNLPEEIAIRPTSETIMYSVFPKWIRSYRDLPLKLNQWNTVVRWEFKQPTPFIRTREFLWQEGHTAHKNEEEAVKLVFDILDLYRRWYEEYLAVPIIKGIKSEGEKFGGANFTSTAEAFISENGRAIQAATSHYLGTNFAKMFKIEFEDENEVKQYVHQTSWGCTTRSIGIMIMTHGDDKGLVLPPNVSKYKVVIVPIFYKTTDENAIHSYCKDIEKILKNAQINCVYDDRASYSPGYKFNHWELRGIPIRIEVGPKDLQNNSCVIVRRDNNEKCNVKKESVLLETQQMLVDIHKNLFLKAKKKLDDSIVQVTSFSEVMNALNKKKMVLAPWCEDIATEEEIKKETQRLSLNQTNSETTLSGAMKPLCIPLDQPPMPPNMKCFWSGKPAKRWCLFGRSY

**Q.** `O=C(NC1Cc2ccccc2C1)c1nccnc1NC(=O)N1CCCCC1` [NCP26] was tested. Which “normalized TR-FRET signal (dose-response replicates)” value (“normalized TR-FRET signal” below) (HsProRS; Log[inhibitor] (M) -5.90248) did it give?
**A.** 4.42E-01 and 6.91E-01 and 6.09E-01

**Q.** And the “normalized TR-FRET signal” value (HsProRS; Log[inhibitor] (M) -6.20323)?
**A.** 4.30E-01 and 8.03E-01 and 7.35E-01

**Q.** What about the “normalized TR-FRET signal” value (HsProRS; Log[inhibitor] (M) -6.51347) of the same compound?
**A.** 8.28E-01 and 6.81E-01 and 6.14E-01

**Q.** What about the “normalized TR-FRET signal” value (HsProRS; Log[inhibitor] (M) -6.79595) of the same compound?
**A.** 1.04E+00 and 6.14E-01 and 1.23E+00

**Q.** And the “normalized TR-FRET signal” value (HsProRS; Log[inhibitor] (M) -7.10794)?
**A.** 8.29E-01 and 9.88E-01 and 1.04E+00

**Q.** What about the “normalized TR-FRET signal” value (HsProRS; Log[inhibitor] (M) -7.40526) of the same compound?
**A.** 1.19E+00 and 8.56E-01 and 7.59E-01

**Q.** And the “normalized TR-FRET signal” value (HsProRS; Log[inhibitor] (M) -7.7137)?
**A.** 9.63E-01 and 9.49E-01 and 1.37E+00

**Q.** What about the “normalized TR-FRET signal” value (HsProRS; Log[inhibitor] (M) -8) of the same compound?
**A.** 8.45E-01 and 9.90E-01 and 8.83E-01

**Q.** And the “normalized TR-FRET signal” value (HsProRS; Log[inhibitor] (M) -8.331)?
**A.** 9.93E-01 and 9.01E-01 and 8.86E-01

**Q.** What about the “normalized TR-FRET signal” value (HsProRS; Log[inhibitor] (M) -8.57403) of the same compound?
**A.** 9.84E-01 and 9.89E-01 and 1.13E+00

**Q.** What about the “normalized TR-FRET signal” value (HsProRS; Log[inhibitor] (M) -8.87506) of the same compound?
**A.** 9.25E-01 and 9.80E-01 and 7.66E-01

**Q.** What about the “normalized TR-FRET signal” value (HsProRS; Log[inhibitor] (M) -9.17609) of the same compound?
**A.** 7.05E-01 and 1.05E+00 and 1.13E+00

**Q.** And the “binding mode with respect to substrates (ATP, proline)” value (PfcProRS)?
**A.** proline-uncompetitive

**Q.** What about the “fold increased affinity in the presence of proline” value (PfcProRS) of the same compound?
**A.** 52 fold

**Q.** What about the “dose-response signal (normalized), SI Fig 8” value (PfcProRS; Log[inhibitor] (M) -6.301) of the same compound?
**A.** -4.45E-02 and 1.59E-01 and 5.71E-02 and 4.55E-02 and 8.14E-02 and 4.48E-02

**Q.** What about the “dose-response signal (normalized), SI Fig 8” value (PfcProRS; Log[inhibitor] (M) -6.602) of the same compound?
**A.** 1.17E-01 and 1.10E-01 and 1.62E-01 and 1.06E-01 and 1.14E-01 and 3.45E-02

**Q.** What about the “dose-response signal (normalized), SI Fig 8” value (PfcProRS; Log[inhibitor] (M) -6.904) of the same compound?
**A.** -7.84E-03 and 4.23E-02 and 1.85E-01 and 6.33E-02 and -1.22E-02 and 1.04E-01

**Q.** What about the “dose-response signal (normalized), SI Fig 8” value (PfcProRS; Log[inhibitor] (M) -7.205) of the same compound?
**A.** 1.30E-01 and 1.69E-01 and 1.26E-02 and 6.32E-02 and 1.43E-01 and 5.72E-02

**Q.** What about the “dose-response signal (normalized), SI Fig 8” value (PfcProRS; Log[inhibitor] (M) -7.506) of the same compound?
**A.** 2.32E-01 and 1.89E-01 and 1.64E-01 and 2.04E-01 and 7.73E-02 and 1.02E-01

**Q.** What about the “dose-response signal (normalized), SI Fig 8” value (PfcProRS; Log[inhibitor] (M) -7.796) of the same compound?
**A.** 3.08E-01 and 3.64E-01 and 4.11E-01 and 4.02E-01 and 3.25E-01 and 3.10E-01

**Q.** What about the “dose-response signal (normalized), SI Fig 8” value (PfcProRS; Log[inhibitor] (M) -8.097) of the same compound?
**A.** 5.23E-01 and 5.87E-01 and 9.12E-01 and 7.05E-01 and 5.54E-01 and 7.03E-01

**Q.** What about the “dose-response signal (normalized), SI Fig 8” value (PfcProRS; Log[inhibitor] (M) -8.407) of the same compound?
**A.** 7.84E-01 and 7.32E-01 and 7.98E-01 and 9.93E-01 and 8.87E-01 and 8.26E-01

**Q.** What about the “dose-response signal (normalized), SI Fig 8” value (PfcProRS; Log[inhibitor] (M) -8.708) of the same compound?
**A.** 9.57E-01 and 1.08E+00 and 9.98E-01 and 8.58E-01 and 8.40E-01 and 9.70E-01

**Q.** And the “dose-response signal (normalized), SI Fig 8” value (PfcProRS; Log[inhibitor] (M) -9.018)?
**A.** 9.48E-01 and 9.31E-01 and 1.13E+00 and 1.15E+00 and 1.02E+00 and 9.66E-01

**Q.** And the “dose-response signal (normalized), SI Fig 8” value (PfcProRS; Log[inhibitor] (M) -9.319)?
**A.** 9.22E-01 and 1.00E+00 and 1.07E+00 and 1.03E+00 and 1.09E+00 and 9.57E-01

**Q.** What about the “dose-response signal (normalized), SI Fig 8” value (PfcProRS; Log[inhibitor] (M) -9.620) of the same compound?
**A.** 1.10E+00 and 1.04E+00 (2×) and 9.95E-01 and 1.13E+00 and 9.21E-01

**Q.** And the “dose-response signal (normalized), SI Fig 8” value (PfcProRS; Log[inhibitor] (M) -9.921)?
**A.** 9.45E-01 and 1.02E+00 and 1.05E+00 and 9.10E-01 and 9.27E-01 and 9.41E-01

**Q.** What about the “dose-response signal (normalized), SI Fig 8” value (PfcProRS; Log[inhibitor] (M) -10.097) of the same compound?
**A.** 1.10E+00 and 1.01E+00 and 1.17E+00 and 9.78E-01 and 8.32E-01 and 1.04E+00

**Q.** And the “dose-response signal (normalized), SI Fig 8” value (PfcProRS; Log[inhibitor] (M) -10.585)?
**A.** 1.14E+00 and 1.18E+00 and 8.42E-01 and 8.75E-01 and 9.70E-01 and 1.02E+00

**Q.** And the “PfcProRS -- best Kd” value (PfcProRS; SI Fig 16a, values on -log scale)?
**A.** 8.599

**Q.** What about the “parasite growth, replicate wells (Fig 1b)” value (shortened to “parasite growth”) ([1]; Log[inhibitor] (M) -4.699, listed as NCP26 (3)) of the same compound?
**A.** 0.00E+00 and -1.00E+00 and -2.00E+00

**Q.** What about the “parasite growth” value ([1]; Log[inhibitor] (M) -5.000, listed as NCP26 (3)) of the same compound?
**A.** 1.00E+00 (2×) and -1.00E+00

**Q.** And the “parasite growth” value ([1]; Log[inhibitor] (M) -5.301, listed as NCP26 (3))?
**A.** -1.00E+00 (2×) and 7.00E+00

**Q.** And the “parasite growth” value ([1]; Log[inhibitor] (M) -5.602, listed as NCP26 (3))?
**A.** 1.00E+00 and 5.00E+00 and 0.00E+00

**Q.** What about the “parasite growth” value ([1]; Log[inhibitor] (M) -5.903, listed as NCP26 (3)) of the same compound?
**A.** 0.00E+00 and -1.00E+00 (2×)

**Q.** And the “parasite growth” value ([1]; Log[inhibitor] (M) -6.204)?
**A.** -2.00E+00

**Q.** What about the “parasite growth” value ([1]; Log[inhibitor] (M) -6.505, listed as NCP26 (3)) of the same compound?
**A.** 0.00E+00 (2×) and -1.00E+00

**Q.** And the “parasite growth” value ([1]; Log[inhibitor] (M) -6.806, listed as NCP26 (3))?
**A.** 1.80E+01 (2×) and 1.90E+01

**Q.** And the “parasite growth” value ([1]; Log[inhibitor] (M) -7.107, listed as NCP26 (3))?
**A.** 9.50E+01 and 8.90E+01 and 9.10E+01

**Q.** What about the “parasite growth” value ([1]; Log[inhibitor] (M) -7.408, listed as NCP26 (3)) of the same compound?
**A.** 1.05E+02 and 1.12E+02 and 1.07E+02

**Q.** What about the “parasite growth” value ([1]; Log[inhibitor] (M) -7.709, listed as NCP26 (3)) of the same compound?
**A.** 1.09E+02 and 1.08E+02 and 1.10E+02

**Q.** What about the “parasite growth” value ([1]; Log[inhibitor] (M) -8.010, listed as NCP26 (3)) of the same compound?
**A.** 9.90E+01 and 1.01E+02 and 1.04E+02

**Q.** What about the “dose-response value, Replicates 1-3 (SI Fig 2e)” value ([1]; Log[inhibitor] (M) -6.204) of the same compound?
**A.** -2.0
